Results: US20150314021A1, “STERILIZATION METHOD COMPRISING STERILIZATION FLUID AND ULTRASONICALLY GERERATED CAVITATION MICROBUBBLES” (DEVIS TECHNOLOGIES INC., priority 2012, published 2015)
Read-outs that look alike come from different tables or passages of the source.

System: Bacillus atrophaeus and Bacillus stearothermophilus
Settings: H2O2 alone (no ultrasound)

Structure (SMILES): OO [Hydrogen Peroxide, hydrogen peroxide]
- reduction in cell count (1 min exposure): 50.02%
- reduction in cell count (5 min exposure): 50.12%
